pIC50, pKi: −log10 of the molar value. A value given as a limit tells only on which side of the number the result lay.

Test [1] concerns the target T1, recombinant human B1 receptors (Homo sapiens, UniProt P46663).
T1 construct: host or cells: CHO (CHO-B1)
T1 sequence (P46663 1-353): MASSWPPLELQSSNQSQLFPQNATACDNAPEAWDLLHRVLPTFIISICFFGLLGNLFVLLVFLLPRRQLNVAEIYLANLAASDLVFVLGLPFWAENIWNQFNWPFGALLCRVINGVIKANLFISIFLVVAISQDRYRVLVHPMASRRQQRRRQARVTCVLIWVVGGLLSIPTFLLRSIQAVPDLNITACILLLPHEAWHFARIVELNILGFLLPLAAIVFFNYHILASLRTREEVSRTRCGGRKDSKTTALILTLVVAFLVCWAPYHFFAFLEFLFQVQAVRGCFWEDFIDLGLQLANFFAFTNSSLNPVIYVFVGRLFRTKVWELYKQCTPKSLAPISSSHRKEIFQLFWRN
In words: Functional assay: antagonist potency by cytosolic calcium measurement (plate reader fluorimeter) in CHO-B1 cells, agonist LysDABK. It counts as cell-based. To be noted: CHO-B1 cells, inhibition of LysDABK (EC80)-evoked [Ca2+]i elevation; read-out: B1 func. The essentials: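 IC50 is the concentration giving half-maximal inhibition of the LysDABK (EC80) calcium response, fitted from at least three experiments. CHO cells stably expressing human B1 were dye-loaded, exposed to compound for 20-25 min, then read by fluo-4 fluorescence (ΔF/F) at 37 °C.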

Test [2] concerns the target T2, human recombinant bradykinin B1 receptor (Homo sapiens, UniProt P46663).
T2 construct: host or cells: CHO cells, clone hB1-A5
T2 sequence (P46663 1-353): T1 sequence (P46663 1-353)
The test can be described thus: Human recombinant bradykinin B1 receptor competitive radioligand binding. The settings on record: hB1 expressed in CHO cells, [3H]-[Des-Arg10] Kallidin radioligand; read-out: B1 binding. The procedure, abridged:
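Competition radioligand binding on CHO-expressed hB1 membranes, using [3,4-prolyl-3,4-^3H(N)]-[Des-Arg^10] Kallidin as tracer, 15 min at 25° C. Excess Lys-des-Arg^9-Bradykinin (10 μM) set nonspecific binding. Sigmoidal fits of at least seven concentrations gave IC50, converted to Ki via Cheng-Prusoff; KD from Scatchard.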

Consider `Cc1cc(C(=O)NC2(C(=O)NCc3ccc(-n4c(-c5nnn(C)n5)c(Cl)c5ccccc54)cc3)CC2)no1` [Example 26, 5-Methyl-isoxazole-3-carboxylic acid (1-{4-[3-chloro-2-(2-methyl-2H-tetrazol-5-yl)-indol-1-yl]-benzylcarbamoyl}-cyclopropyl)-amide], for which, in test [1], the pIC50 was greater than 7.70. Further, the pKi in test [2] was greater than 7.70.

For the compound `COc1cc(C(=O)NC2(C(=O)NCc3ccc(-n4c(-c5noc(=O)n5C)c(Cl)c5ccccc54)cc3)CC2)on1` [Example 201, 3-Methoxy-isoxazole-5-carboxylic acid (1-{4-[3-chloro-2-(4-methyl-5-oxo-4,5-dihydro-[1,2,4]oxadiazol-3-yl)-indol-1-yl]-benzylcarbamoyl}-cyclopropyl)-amide], the pIC50 in test [1] is greater than 7.70. Moreover, the pKi in test [2] is greater than 7.70.

With `Cc1nc(-c2c(Cl)c3ccccc3n2-c2ccc(CNC(=O)C3(NC(=O)C4CCC4)CC3)cc2)no1` [Example 143, Cyclobutanecarboxylic acid (1-{4-[3-chloro-2-(5-methyl-[1,2,4]oxadiazol-3-yl)-indol-1-yl]-benzylcarbamoyl}-cyclopropyl)-amide], the pIC50 in test [1] was greater than 7.70. Moreover, in test [2], the pKi was greater than 7.70.

For the compound `Cn1nnc(-c2c(Cl)c3ccccc3n2-c2ccc(CNC(=O)C3(NC(=O)C(F)(F)F)CC3)cc2)n1` [Example 1, 1-(2,2,2-Trifluoro-acetylamino)-cyclopropanecarboxylic acid 4-[3-chloro-2-(2-methyl-2H-tetrazol-5-yl)-indol-1-yl]-benzylamide], in test [1], the pIC50 was greater than 7.70. Further, the pKi in test [2] is greater than 7.70.

Take `COc1cc(C(=O)NC2(C(=O)NCc3ccc(-n4c(-c5noc(C)n5)cc5cc(Cl)ccc54)cc3)CC2)on1` [Example 53, 3-Methoxy-isoxazole-5-carboxylic acid (1-{4-[5-chloro-2-(5-methyl-[1,2,4]oxadiazol-3-yl)-indol-1-yl]-benzylcarbamoyl}-cyclopropyl)-amide]: the pIC50 in test [1] is greater than 7.70. Besides, the pKi in test [2] is greater than 7.70.

Consider `Cc1noc(-c2c(Cl)c3ccccc3n2-c2ccc(CNC(=O)C3(NC(=O)c4cncc(C(F)(F)F)c4)CC3)cc2)n1` [Example 115, N-(1-{4-[3-Chloro-2-(3-methyl-[1,2,4]oxadiazol-5-yl)-indol-1-yl]-benzylcarbamoyl}-cyclopropyl)-5-trifluoromethyl-nicotinamide], for which, in test [1], the pIC50 was greater than 7.70. Moreover, in test [2], the pKi was greater than 7.70.

Take `COc1ccc2c(c1)cc(-c1nc(C)no1)n2-c1ccc(CNC(=O)C2(NC(=O)c3cc(OC)no3)CC2)cc1` [Example 80, 3-Methoxy-isoxazole-5-carboxylic acid (1-{4-[5-methoxy-2-(3-methyl-[1,2,4]oxadiazol-5-yl)-indol-1-yl]-benzylcarbamoyl}-cyclopropyl)-amide]: the pIC50 in test [1] is greater than 7.70. Also, the pKi in test [2] is greater than 7.70.

Regarding `Cc1noc(-c2c(Cl)c3ccccc3n2-c2ccc(CNC(=O)C3(NC(=O)c4ccnc(F)c4)CC3)cc2)n1` [Example 113, N-(1-{4-[3-Chloro-2-(3-methyl-[1,2,4]oxadiazol-5-yl)-indol-1-yl]-benzylcarbamoyl}-cyclopropyl)-2-fluoro-isonicotinamide], in test [1], the pIC50 was greater than 7.70. In test [2], the pKi is greater than 7.70.

Take `Cc1nc(-c2c(Cl)c3ccccc3n2-c2ccc(CNC(=O)C3(NC(=O)c4cccnc4F)CC3)cc2)no1` [Example 95, N-(1-{4-[3-Chloro-2-(5-methyl-[1,2,4]oxadiazol-3-yl)-indol-1-yl]-benzylcarbamoyl}-cyclopropyl)-2-fluoro-nicotinamide]: in test [1], the pIC50 is greater than 7.70. Further, the pKi in test [2] was greater than 7.70.

As to `Cc1nc(-c2cc3cc(Cl)ccc3n2-c2ccc(CNC(=O)C3(NC(=O)c4cncc(C(F)(F)F)c4)CC3)cc2)no1` [Example 128, N-(1-{4-[5-Chloro-2-(5-methyl-[1,2,4]oxadiazol-3-yl)-indol-1-yl]-benzylcarbamoyl}-cyclopropyl)-5-trifluoromethyl-nicotinamide], the pIC50 in test [1] was greater than 7.70. In addition, in test [2], the pKi is greater than 7.70.

Regarding `Cc1nc(-c2c(Cl)c3cc(F)ccc3n2-c2ccc(CNC(=O)C3(NC(=O)c4ccnc(F)c4)CC3)cc2)no1` [Example 89, N-(1-{4-[3-Chloro-5-fluoro-2-(5-methyl-[1,2,4]oxadiazol-3-yl)-indol-1-yl]-benzylcarbamoyl}-cyclopropyl)-2-fluoro-isonicotinamide], in test [1], the pIC50 was greater than 7.70. Further, the pKi in test [2] is greater than 7.70.

In the case of `COc1cc(C(=O)NC2(C(=O)NCc3ccc(-n4c(-c5noc(C)n5)cc5cc(F)ccc54)cn3)CC2)on1` [Example 61, 3-Methoxy-isoxazole-5-carboxylic acid [1-({5-[5-fluoro-2-(5-methyl-[1,2,4]oxadiazol-3-yl)-indol-1-yl]-pyridin-2-ylmethyl}-carbamoyl)-cyclopropyl]-amide], in test [1], the pIC50 is greater than 7.70. Further, the pKi in test [2] is greater than 7.70.

Consider `Cc1nc(-c2c(Cl)c3ccccc3n2-c2ccc(CNC(=O)C3(NC(=O)c4cccnc4)CC3)cc2)no1` [Example 158, N-(1-{4-[3-Chloro-2-(5-methyl-[1,2,4]oxadiazol-3-yl)-indol-1-yl]-benzylcarbamoyl}-cyclopropyl)-nicotinamide], for which the pIC50 in test [1] is greater than 7.70. Also, the pKi in test [2] is greater than 7.70.

Take `COc1ccc2c(c1)c(Cl)c(-c1nc(C)no1)n2-c1ccc(CNC(=O)C2(NC(=O)c3cc(OC)no3)CC2)cc1` [Example 51, 3-Methoxy-isoxazole-5-carboxylic acid (1-{4-[3-chloro-5-methoxy-2-(3-methyl-[1,2,4]oxadiazol-5-yl)-indol-1-yl]-benzylcarbamoyl}-cyclopropyl)-amide]: the pIC50 in test [1] was greater than 7.70. The pKi in test [2] was greater than 7.70.

On to `Cc1ccc(C(=O)NC2(C(=O)NCc3ccc(-n4c(-c5noc(C)n5)c(Cl)c5ccccc54)cc3)CC2)cn1` [Example 154, N-(1-{4-[3-Chloro-2-(5-methyl-[1,2,4]oxadiazol-3-yl)-indol-1-yl]-benzylcarbamoyl}-cyclopropyl)-6-methyl-nicotinamide], for which the pIC50 in test [1] is greater than 7.70. Also, the pKi in test [2] is greater than 7.70.

`COc1cc(C(=O)NC2(C(=O)NCc3ccc(-n4c(-c5nc(C)no5)cc5ccccc54)cc3)CC2)on1` [Example 196, 3-Methoxy-isoxazole-5-carboxylic acid (1-{4-[2-(3-methyl-[1,2,4]oxadiazol-5-yl)-indol-1-yl]-benzylcarbamoyl}-cyclopropyl)-amide]: in test [1], the pIC50 is 7.00 to 7.70. Also, in test [2], the pKi was greater than 7.70.

As to `COc1ccc2c(c1)cc(-c1nc(C)no1)n2-c1ccc(CNC(=O)C2(NC(=O)CC(F)(F)F)CC2)cc1` [Example 78, 1-(3,3,3-Trifluoro-propionylamino)-cyclopropanecarboxylic acid 4-[5-methoxy-2-(3-methyl-[1,2,4]oxadiazol-5-yl)-indol-1-yl]-benzylamide], in test [1], the pIC50 was greater than 7.70. Also, in test [2], the pKi was greater than 7.70.

For `N#Cc1cc2ccccc2n1-c1ccc(CNC(=O)C2(NC(=O)c3cncc(C(F)(F)F)c3)CC2)cc1` [Example 84, N-{1-[4-(2-Cyano-indol-1-yl)-benzylcarbamoyl]-cyclopropyl}-5-trifluoromethyl-nicotinamide], the pIC50 in test [1] was greater than 7.70. Moreover, in test [2], the pKi was greater than 7.70.

Turning to `Cc1nc(-c2c(Cl)c3ccccc3n2-c2ccc(CNC(=O)C3(NC(=O)C4CCCO4)CC3)cc2)no1` (stereo not shown) [Example 136, Tetrahydro-furan-2-carboxylic acid (1-{4-[3-chloro-2-(5-methyl-[1,2,4]oxadiazol-3-yl)-indol-1-yl]-benzylcarbamoyl}-cyclopropyl)-amide], the pIC50 in test [1] was 7.00 to 7.70. For the same compound, the pKi in test [2] is 7.00 to 7.70.

For `Cn1nnc(-c2cc3ccccc3n2-c2ccc(CNC(=O)C3(NC(=O)C(F)(F)F)CC3)cc2)n1` [Example 36, 1-(2,2,2-Trifluoro-acetylamino)-cyclopropanecarboxylic acid 4-[2-(2-methyl-2H-tetrazol-5-yl)-indol-1-yl]-benzylamide], in test [1], the pIC50 was greater than 7.70. Moreover, the pKi in test [2] is greater than 7.70.

`Cc1nc(-c2c(Cl)c3cc(Cl)ccc3n2-c2ccc(CNC(=O)C3(NC(=O)c4ccnc(F)c4)CC3)cc2)no1` [Example 74, N-(1-{4-[3,5-Dichloro-2-(5-methyl-[1,2,4]oxadiazol-3-yl)-indol-1-yl]-benzylcarbamoyl}-cyclopropyl)-2-fluoro-isonicotinamide]: the pIC50 in test [1] was greater than 7.70. In addition, the pKi in test [2] is greater than 7.70.

Consider `N#Cc1cc2cc(F)ccc2n1-c1ccc(CNC(=O)C2(NC(=O)c3cncc(C(F)(F)F)c3)CC2)cc1` [Example 45, N-{1-[4-(2-Cyano-5-fluoro-indol-1-yl)-benzylcarbamoyl]-cyclopropyl}-5-trifluoromethyl-nicotinamide], for which, in test [1], the pIC50 was greater than 7.70. In test [2], the pKi is greater than 7.70.

On to `Cc1nc(-c2c(Cl)c3ccccc3n2-c2ccc(CNC(=O)C3(NC(=O)c4ccoc4)CC3)cc2)no1` [Example 137, Furan-3-carboxylic acid (1-{4-[3-chloro-2-(5-methyl-[1,2,4]oxadiazol-3-yl)-indol-1-yl]-benzylcarbamoyl}-cyclopropyl)-amide], for which, in test [1], the pIC50 was greater than 7.70. In addition, in test [2], the pKi is greater than 7.70.

Source of the values: patent US20130217702A1 (Richter Gedeon Nyrt., priority 2010, published 2013).
